According to ChEMBL document CHEMBL1201862, “PubChem BioAssay data set” (2004):
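Tested at 5 concentrations; 48 h exposure; 96-well plates; endpoints linearly interpolated, else capped at highest concentration. The concentration for 50% growth inhibition is given as GI50.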 Calls of active or inactive are those of the source. Rule as the data show it: active = GI50 up to about 1.1 µM and inactive = higher.

Experiments:
Assay in all cases: inhibition of tumour cell growth, NCI panel, 48 h
[1] = system: SK-MEL-5
[2] = system: EKVX
[3] = system: MDA-MB-435
[4] = system: HOP-92
[5] = system: CCRF-CEM
[6] = system: SK-OV-3
[7] = system: NCI-H226
[8] = system: SK-MEL-2
[9] = system: OVCAR-3
[10] = system: SNB-75
[11] = system: LOX IMVI
[12] = system: K562
[13] = system: OVCAR-8
[14] = system: SR
[15] = system: RPMI-8226
[16] = system: IGROV-1
[17] = system: Hs-578T
[18] = system: PC-3
[19] = system: NCI/ADR-RES
[20] = system: SW-620
[21] = system: SF-268
[22] = system: RXF 393
[23] = system: SF-539
[24] = system: COLO 205
[25] = system: KM12
[26] = system: HT-29
[27] = system: OVCAR-4
[28] = system: NCI-H23
[29] = system: OVCAR-5
[30] = system: Malme-3M
[31] = system: MDA-N
[32] = system: DU-145
[33] = system: CAKI-1
[34] = system: MOLT-4
[35] = system: A549
[36] = system: UO-31
[37] = system: SF-295
[38] = system: HCC 2998
[39] = system: MCF7
[40] = system: M14
[41] = system: A498
[42] = system: HCT-15
[43] = system: BT-549
[44] = system: ACHN
[45] = system: HL-60
[46] = system: NCI-H460
[47] = system: SK-MEL-28
[48] = system: 786-0
[49] = system: SNB-19
[50] = system: SN12C
[51] = system: HOP-62
[52] = system: UACC-257
[53] = system: HCT-116
[54] = system: NCI-H522
[55] = system: UACC-62
[56] = system: T47D
[57] = system: TK-10
[58] = system: MDA-MB-231
[59] = system: U-251

Measured: GI50

COc1cc(S(=O)(=O)Nc2ccc(-c3csc(N4C(=O)CSC4c4cccs4)n3)cc2)ccc1Cl (centres undefined)
32.6 µM: [42]
inactive: [1] 64 µM | [2] 50.8 µM | [3] 29.5 µM | [4] 23.7 µM | [5] 4.98 µM | [6] 56.4 µM | [7] 27.9 µM | [8] 20.5 µM | [9] 51.5 µM | [10] 20.2 µM | [11] 18.7 µM | [12] 22.6 µM | [13] 41.5 µM | [14] 29.7 µM | [15] 8.67 µM | [16] 27.1 µM | [17] 30.3 µM | [18] 24.9 µM | [19] > 100 µM | [20] 24.7 µM | [21] 19.8 µM | [22] 11.2 µM | [23] 25.7 µM | [24] 31.8 µM | [25] 20.4 µM | [26] 39.8 µM | [27] 18.4 µM | [28] 31.3 µM | [29] > 100 µM | [30] 27.9 µM | [31] 29.4 µM | [32] 22.1 µM | [33] 79.8 µM | [34] 8.67 µM | [35] 86.9 µM | [36] 57.3 µM | [37] > 100 µM | [38] 15.6 µM | [39] 16.4 µM | [40] 46.9 µM | [41] 43.6 µM | [43] 23.6 µM | [44] > 100 µM | [45] 14.5 µM | [46] 29.3 µM | [47] 19.9 µM | [48] 28.4 µM | [49] 33.3 µM | [50] 25.8 µM | [51] 42.7 µM | [52] 20.3 µM | [53] 31.3 µM | [54] 15.9 µM

Cc1ccc2nc(-c3ccccc3)c(N=O)n2c1
34 µM: [42]
inactive: [1] 46.3 µM | [2] 20.5 µM | [3] 40 µM | [4] 77.1 µM | [5] 38.5 µM | [6] > 100 µM | [7] 29.1 µM | [8] > 100 µM | [9] 32.4 µM | [10] 76.7 µM | [11] 46.5 µM | [12] 91.2 µM | [13] 41 µM | [55] 22.6 µM | [15] 36.1 µM | [16] 35.5 µM | [17] 79.4 µM | [18] 62.7 µM | [19] 46.2 µM | [20] 53.6 µM | [21] 69.2 µM | [56] 71 µM | [22] > 100 µM | [23] 29.2 µM | [24] 35.7 µM | [25] 40.6 µM | [26] 48 µM | [27] 26.2 µM | [28] 36.1 µM | [29] 43.5 µM | [30] 29.5 µM | [57] 38.3 µM | [32] 46.6 µM | [33] 37.1 µM | [34] 28.4 µM | [35] 32.7 µM | [36] 66.8 µM | [37] 87.1 µM | [39] 11.6 µM | [40] 68.2 µM | [41] > 100 µM | [58] 17.4 µM | [43] 37.1 µM | [44] 46.9 µM | [46] 50.1 µM | [59] 38.9 µM | [47] 45.9 µM | [48] 40.9 µM | [49] 96.4 µM | [50] 20.2 µM | [51] 56 µM | [52] 37 µM | [53] 35.7 µM | [54] 36.1 µM

C[C@]12CC[C@@H]3c4cc(OCC(F)(F)F)c(O)cc4/C(=N/O)C[C@H]3[C@@H]1CC[C@@H]2O
active: [1] 0.0232 µM | [2] 0.23 µM | [3] < 0.0126 µM | [4] 0.33 µM | [5] < 0.0163 µM | [6] 0.0384 µM | [7] 0.27 µM | [8] 0.0351 µM | [9] 0.0156 µM | [10] < 0.01 µM | [16] 0.147 µM | [17] 0.0215 µM | [21] 0.0484 µM | [23] 0.0188 µM | [25] 0.537 µM | [30] 0.0299 µM | [31] 0.011 µM | [33] 0.0468 µM | [35] 0.0372 µM | [39] 0.0247 µM | [41] 0.0977 µM | [58] 0.0592 µM | [43] < 0.01 µM | [59] 0.026 µM | [49] 0.025 µM | [50] 0.0873 µM | [52] 0.0509 µM
inactive: [18] 2.56 µM | [24] 16 µM | [26] 3.62 µM | [27] 7 µM | [29] 12.9 µM | [57] 23.7 µM | [38] 2.82 µM

Cc1ccnc(NC(=S)Nc2cccc(Cl)c2)c1
active: [54] 0.02 µM
inactive: [1] > 100 µM | [2] 12.4 µM | [3] > 100 µM | [5] > 100 µM | [6] > 100 µM | [8] > 100 µM | [9] > 100 µM | [10] 23.1 µM | [11] > 100 µM | [12] > 100 µM | [13] > 100 µM | [55] > 100 µM | [14] > 100 µM | [15] > 100 µM | [16] 10.5 µM | [17] 74.1 µM | [18] > 100 µM | [19] > 100 µM | [20] > 100 µM | [21] > 100 µM | [56] > 100 µM | [22] > 100 µM | [23] > 100 µM | [24] > 100 µM | [25] > 100 µM | [26] > 100 µM | [27] > 100 µM | [29] > 100 µM | [57] > 100 µM | [32] > 100 µM | [33] > 100 µM | [34] > 100 µM | [35] > 100 µM | [36] > 100 µM | [37] > 100 µM | [39] > 100 µM | [40] > 100 µM | [41] > 100 µM | [43] > 100 µM | [45] > 100 µM | [46] > 100 µM | [59] > 100 µM | [47] > 100 µM | [48] > 100 µM | [49] > 100 µM | [50] > 100 µM | [51] 78.9 µM | [52] > 100 µM | [53] > 100 µM
> 100 µM: [42]
